# According to patent EP2660245A1, “PHYSIOLOGICALLY ACTIVE BIS-DIALKYLAMIDES OF PHOSPHORYL-SUBSTITUTED 1,4-DICARBOXYLIC ACIDS AND METHOD FOR PRODUCING SAME” (Federalnoe Gosudarstvennoe Bydzhetnoe Uchrezhdenie Nauki …, priority 2010, dated 2012):
# Assays:
# [1] = test system: rat cortical synaptosomes; assay: glutamate-induced 45Ca2+ uptake into rat cortical synaptosomes (P2-fraction); assay type: cell-based; conditions: for activity at 100 µM / IC50: Rattus norvegicus, glutamate-stimulated; for activity at 100 µM / ^45Ca^2+ uptake (% vs. control): 5 min; for activity at 100 µM: compound at 100 µM, synaptosomes of newborn Wistar rats, 5 minutes at 37°C, control = 100%, read-out: ^45Ca^2+ uptake (% vs. control); for IC50: concentration at which 50% inhibition of calcium uptake takes place, four different concentrations; for ^45Ca^2+ uptake (% vs. control): 100 µM
# From the text: Neuroprotective action of the synthesized compounds was studied in P2-fraction of the rat brain cortex synaptosomes as an in vitro convenient model for evaluation of the ability of various compounds to influence calcium uptake into the nerve endings. In the present invention, the applicant used the method of detecting the uptake of ^45Ca^2+ into rat cortical synaptosomes when stimulated with glutamic acid.
# Synaptosomes were obtained from the cerebral cortex of newborn Wistar rats (9-10 days) according to Hayosh's standard procedure [Hajos F.// Brain Res., 1975, Vol.93, No 3, pp. 485-489]. The brain was homogenized (glass-teflon) in 10 volumes of 0.32 M chilled sucrose (900 rpm). The homogenate was centrifuged for 10 minutes at 1500 g. The resulting supernatant was centrifuged for 20 minutes at 10000 g. To accumulate the radioactive label, the P2-synaptosomal fraction was suspended in incubation buffer A (132 mM NaCl, 5 mM KCl, 5 mM HEPES, 10 mM glucose, pH 7.4 (protein concentration of 1.5-2 mg/ml)). The final concentration of Ca^2+ was 1.25 mM (1.4 µCi/ml). […] glutamate was used to stimulate the uptake of ^45Ca^2+ in synaptosomes. After 5 minutes of the incubation with glutamate at 37°C, the uptake of ^45Ca^2+ was stopped by filtration through GF/B filters (Whatman, England), washing three times with cold buffer B (145 mM KCl, 10 mM Tris, 5.4 mM Trilon B, pH 7.4) [L.N. Petrova, S.O. Bachurin // Bull. Exp. Biol. Med., 2006., Vol. 142, No 7, pp.51-54]. The samples were analyzed by liquid scintillation beta analyzer (Russia). All tests were performed in three parallel replications in 2-3 independent experiments. The amount of ^45Ca^2+ uptaced into synaptosomes was determined by the difference in the content of the label in the glutamate-induced uptake into synaptosomes and uptake into synaptosomes without agonist, and expressed as percentages of the control (control = 100%).
# Specific uptake of ^45Ca^2+ was calculated according to the following formula: K(43/21) = [(Ca4-Ca3)/(Ca2-Ca1)]⋅100%, [formula] wherein Ca1 is uptake of ^45Ca^2+ in the control (without glutamate and a test compound), Ca2 is uptake of ^45Ca^2+ in the presence of glutamate, Ca3 is uptake of ^45Ca^2+ in the presence of a test compound (without glutamate), Ca4 is uptake of ^45Ca^2+ in the presence of glutamate and a test compound. Statistical analysis was performed according to Student's test.
# Testing of the compounds was performed at a concentration of 100 µM. Compounds 1-9 which have an inhibitory effect on the ^45Ca^2+ uptake into rat cortical synaptosomes were examined in detail at four different concentrations to determine the IC50 value (concentration of a compound at which 50% inhibition of calcium uptake takes place).
# [2] = acute toxicity (LD50) according to the standard method; conditions: in vivo
structure (smiles),measurement,setting,value
"CCCCN(CCCC)C(=O)CC(C(=O)N(CCCC)CCCC)P(=O)(CCCC)CCCC (centres unmarked) [Compound 7, N^1,N^1,N^4,N^4-tetrabutyldiamide of 2-(di-n-butylphosphinoyl)succinic acid]",activity at 100 µM,[1],0%
same,IC50,[1],44.7 µM
same,LD50,[2],> 100 mg/kg
"CCCCN(CCCC)C(=O)CC(C(=O)N(CCCC)CCCC)P(=O)(c1ccccc1)c1ccccc1 (centres unmarked) [Compound 1, N^1,N^1,N^4,N^4-tetrabutyldiamide of 2-(diphenylphosphinoyl)succinic acid]",^45Ca^2+ uptake (% vs. control),[1],0%
same,IC50,[1],14.1 µM
same,LD50,[2],> 100 mg/kg
"CCCCN(CCCC)C(=O)CC(C(=O)N(CCCC)CCCC)P(=O)(c1ccc(Cl)cc1)c1ccc(Cl)cc1 (centres unmarked) [Compound 5, N^1,N^1,N^4,N^4-tetrabutyldiamide of 2-[bis(4-chlorophenyl)-phosphinoyl]succinic acid]",activity at 100 µM,[1],11.7 ± 7%
same,IC50,[1],4.8 µM
same,LD50,[2],> 100 mg/kg
"Cc1ccc(C)c(P(=O)(c2cc(C)ccc2C)C(CC(=O)O)C(=O)O)c1 (centres unmarked) [Compound 12, 2-[bis-(2,5-Dimethylphenyl)-phosphinoyl]succinic acid, reference compound]",activity at 100 µM,[1],97.9 ± 11.4%
"CCCCN(CCCC)C(=O)CC(C(=O)N(CCCC)CCCC)P(=O)(c1ccc(OC)cc1)c1ccc(OC)cc1 (centres unmarked) [Compound 6, N^1,N^1,N^4,N^4-tetrabutyldiamide of 2-[bis(4-methoxyphenyl)-phosphinoyl]succinic acid]",activity at 100 µM,[1],7.2 ± 1.3%
same,IC50,[1],17 µM
same,LD50,[2],> 100 mg/kg
"CCCCN(CCCC)C(=O)CC(C(=O)N(CCCC)CCCC)P(=O)(c1cc(C)ccc1C)c1cc(C)ccc1C (centres unmarked) [Compound 3, N^1,N^1,N^4,N^4-tetrabutyldiamide of 2-[bis(2,5-dimethylphenyl)-phosphinoyl]succinic acid]",activity at 100 µM,[1],7.7 ± 6.4%
same,IC50,[1],18.6 µM
same,LD50,[2],> 100 mg/kg
"CCCCN(CCCC)C(=O)CC(CP(=O)(c1cc(C)ccc1C)c1cc(C)ccc1C)C(=O)N(CCCC)CCCC (centres unmarked) [Compound 9, N^1,N^1,N^4,N^4-tetrabutyldiamide of 2-[bis(2,5-dimethylphenyl)-phosphinoylmethyl]succinic acid]",activity at 100 µM,[1],4.9 ± 4.9%
same,IC50,[1],5.1 µM
same,LD50,[2],> 100 mg/kg
"CCCCN(CCCC)C(=O)CC(CP(=O)(c1ccc(OC)cc1)c1ccc(OC)cc1)C(=O)N(CCCC)CCCC (centres unmarked) [Compound 8, N^1,N^1,N^4,N^4-tetrabutyldiamide of 2-[bis(4-methoxyphenyl)-phosphinoylmethyl]succinic acid]",^45Ca^2+ uptake (% vs. control),[1],0%
same,IC50,[1],15.5 µM
same,LD50,[2],> 100 mg/kg
"CCP(=O)(CC)C(CC(=O)O)C(=O)O (centres unmarked) [Compound 13, 2-(Diethylphosphinoyl)succinic acid, reference compound]",activity at 100 µM,[1],120 ± 17.3%
"CCCCN(CCCC)C(=O)CP(=O)(c1ccccc1)c1ccccc1 [Compound 16, N,N-Dibutylamide of 2-(diphenylphosphinoyl)acetic acid, reference compound]",activity at 100 µM,[1],96.2 ± 2.9%
"CCN(CC)C(=O)CC(CP(=O)(c1ccccc1)c1ccccc1)C(=O)N(CC)CC (centres unmarked) [Compound 10, N^1,N^1,N^4,N^4-tetraethyldiamide of 2-(diphenylphosphinoylmetyl)succinic acid]",activity at 100 µM,[1],63.8 ± 12%
same,LD50,[2],> 100 mg/kg
"CCN(CC)C(=O)CP(=O)(c1ccccc1)c1ccccc1 [Compound 17, N,N-Diethylamide of 2-(diphenylphosphinoyl)acetic acid, reference compound]",activity at 100 µM,[1],95.4%
"CCN(CC)CC(C(=O)N(CC)CC)P(=O)(c1ccccc1)c1ccccc1 (centres unmarked) [Compound 18, N,N-Diethylamide of 2-(diphenylphosphinoyl)-3-(diethylamino)propionic acid, reference compound]",activity at 100 µM,[1],97.4%
"CN(C)c1ccc(P(=O)(c2ccc(N(C)C)cc2)C(CC(=O)O)C(=O)O)cc1 (centres unmarked) [Compound 11, 2-[bis-(4-Dimethylaminophenyl)-phosphinoyl]succinic acid, reference compound]",activity at 100 µM,[1],117 ± 3.9%
"CCCCN(CCCC)C(=O)CC(C(=O)N(CCCC)CCCC)P(=O)(c1ccc(N(C)C)cc1)c1ccc(N(C)C)cc1 (centres unmarked) [Compound 4, N^1,N^1,N^4,N^4-tetrabutyldiamide of 2-[bis(4-dimethylaminophenyl)-phosphinoyl]succinic acid]",activity at 100 µM,[1],0%
same,IC50,[1],7.9 µM
same,LD50,[2],> 100 mg/kg
CCCCN(CCCC)C(=O)CC(C(=O)N(CCCC)CCCC)P(=O)(c1ccccc1C)c1ccccc1C (centres unmarked) [Compound 2],^45Ca^2+ uptake (% vs. control),[1],6.6±3.3%
same,IC50,[1],9.3 µM
same,LD50,[2],> 100 mg/kg
